Patent US10457707B2, “Substituted urea depsipeptide analogs as activators of the CLPP endopeptidase” (priority 2015, dated 2019)
Values after ≈ are worked out from the molar mass of the structure shown. Read-outs that look alike come from different tables or passages of the source. *1 amine or outer side, *2 acyl side, *3 side chain or, on linkers, in order; H or OH if unused. Where a SMILES comes first, the peptide text is derived from it. Bridges are numbered along the chain shown (N, C = ends). [ ]: non-standard residue; d: D form. The star is where a group is joined. ξ: configuration not given here. NH(1,3-benzodioxol-5-yl) = c1cc2c(cc1N*)OCO2; Phe(3,5-F2) = N[C@@H](Cc1cc(F)cc(F)c1)C(=O)O; Pro(4R-Me) = C[C@H]1CN[C@H](C(=O)O)C1; X9 = CC1(C)CC(C(=O)[*:2])N([*:1])C1; NMeT = CN[C@H](C(=O)O)[C@@H](C)O; NH(4-Me-phenyl) = Cc1ccc(N*)cc1; aThr = C[C@H](O)[C@H](N)C(=O)O; Pip = O=C(O)[C@@H]1CCCCN1; ξPip = O=C(O)C1CCCCN1; CO = O=C([*:1])[*:2]; ξP = O=C(O)C1CCCN1

Legend:
Assay type in all cases: cell-based
[1] = system: Bacillus subtilis, ATCC 23857; assay: Minimal inhibitory concentration assay (microbroth dilution)
Description: (§1) It is understood, that in various aspects, the MIC is determined by a microbroth dilution method. In a further aspect, the MIC is determined by a microbroth dilution method using Staphylococcus aureus, ATCC 29213. In a still further aspect, the MIC is determined by a microbroth dilution method using Staphylococcus aureus, NRS70. In a yet further aspect, the MIC is determined by a microbroth dilution method using Streptococcus pyogenes, ATCC 700294. In an even further aspect, the MIC is determined by a microbroth dilution method using Streptococcus pneumoniae, DAW27. In a still further aspect, the MIC is determined by a microbroth dilution method using Bacillus subtilis, ATCC 23857. In a yet further aspect, the MIC is determined by a microbroth dilution method using Enterococcus faecalis, ATCC 33186. In an even further aspect, the MIC is determined using Staphylococcus aureus, USA 300. In a still further aspect, the MIC is determined using Streptococcus pneumoniae, R6. In a further aspect, the MIC is determined using Staphylococcus aureus, USA 300 and compared to the MIC determined using Staphylococcus aureus, USA 300 wherein ClpP is inactivated, thus allowing confirmation that killing is via a ClpP-dependent pathway.
(§2) Minimal inhibitory concentrations (“MICs”) were determined using the microbroth dilution method according to Clinical Laboratory Standards Institute (CLSI; National, C.F. C. L. S., Methods for Dilution Antimicrobial Susceptibility Tests for Bacteria Grow aerobically-Seventh Edition: Approved Standard M7-A7, CLSI, Wayne, Pa., USA, 2008) and were read by visual inspection. Two fold serial dilutions of test compound in 100 μL of the appropriate broth media were first prepared in 96-well round bottom microtiter plates (Nalgene Nunc International, Rochester, N.Y., USA). An equivalent volume (100 μL) of bacterial broth inocula containing approximately 10^5 bacterial cfu/mL was added to each well to give final concentrations of test compound starting at 200 μM. The plates were then incubated aerobically at 37° C. All strains were incubated overnight. After incubations, in all cases the MIC was recorded as the lowest concentration of drug that prevented bacterial growth. The bacterial strains for which MIC was determined as described in Table 4.

[2] = system: Staphylococcus aureus, NRS70; assay: as above
Description: as §1, §2

[3] = system: Staphylococcus aureus, ATCC 29213; assay: as above; details: ATCC29213, read-out: Minimal Inhibitory Concentrations S. aureus ATCC 29213
Description: as §1, §2

[4] = system: Staphylococcus aureus, USA 300; assay: Minimal inhibitory concentration assay; details: USA300, read-out: Minimal Inhibitory Concentrations S. aureus USA 300
Description: as §1, §2

[5] = system: Staphylococcus aureus, USA 300 wherein ClpP is inactivated; assay: Minimal inhibitory concentration assay
Description: as §1, §2

[6] = system: Streptococcus pyogenes, ATCC 700294; assay: Minimal inhibitory concentration assay (microbroth dilution)
Description: as §1
Minimal inhibitory concentrations (“MICs”) were determined using the microbroth dilution method according to Clinical Laboratory Standards Institute (CLSI; National, C.F. C. L. S., Methods for Dilution Antimicrobial Susceptibility Tests for Bacteria Grow aerobically-Seventh Edition: Approved Standard M7-A7, CLSI, Wayne, Pa., USA, 2008) and were read by visual inspection. Two fold serial dilutions of test compound in 100 μL of the appropriate broth media were first prepared in 96-well round bottom microtiter plates (Nalgene Nunc International, Rochester, N.Y., USA). […] The plates were then incubated aerobically at 37° C. All strains were incubated overnight. After incubations, in all cases the MIC was recorded as the lowest concentration of drug that prevented bacterial growth. The bacterial strains for which MIC was determined as described in Table 4.

[7] = system: Streptococcus pneumoniae, R6; assay: Minimal inhibitory concentration assay; details: read-out: Minimal Inhibitory Concentrations S. pneumoniae R6
Description: It is understood, that in various aspects, the MIC is determined by a microbroth dilution method. […] In a still further aspect, the MIC is determined by a microbroth dilution method using Staphylococcus aureus, NRS70. […] In an even further aspect, the MIC is determined by a microbroth dilution method using Streptococcus pneumoniae, DAW27. […] In an even further aspect, the MIC is determined using Staphylococcus aureus, USA 300. In a still further aspect, the MIC is determined using Streptococcus pneumoniae, R6. In a further aspect, the MIC is determined using Staphylococcus aureus, USA 300 and compared to the MIC determined using Staphylococcus aureus, USA 300 wherein ClpP is inactivated, thus allowing confirmation that killing is via a ClpP-dependent pathway.
Two fold serial dilutions of test compound in 100 μL of the appropriate broth media were first prepared in 96-well round bottom microtiter plates (Nalgene Nunc International, Rochester, N.Y., USA). […] The plates were then incubated aerobically at 37° C. All strains were incubated overnight. After incubations, in all cases the MIC was recorded as the lowest concentration of drug that prevented bacterial growth. The bacterial strains for which MIC was determined as described in Table 4.

[8] = Bacillus subtilis, ATCC23857; read-out: Minimal Inhibitory Concentrations B. subtilis ATCC 23857
[9] = Staphylococcus aureus, NRS70; read-out: Minimal Inhibitory Concentrations S. aureus NRS70
[10] = Streptococcus pyogenes, ATCC700294; read-out: Minimal Inhibitory Concentrations S. pyogenes ATCC 700294
[11] = Bacillus subtilis, ATCC23857, read-out: Minimal Inhibitory Concentrations B. subtilis ATCC 23857
[12] = Staphylococcus aureus, NRS70, read-out: Minimal Inhibitory Concentrations S. aureus NRS70
[13] = Streptococcus pyogenes, ATCC700294, read-out: Minimal Inhibitory Concentrations S. pyogenes ATCC 700294

Row | Structure (SMILES) | MIC [1, 8] [µM] | MIC [2, 9] [µM] | MIC [3] [µM] | MIC [4] [µM] | Minimal Inhibitory Concentrations S. aureus USA 300 ΔClpP [5] [µM] | MIC [6, 10] [µM] | MIC [7] [µM] | MIC [1, 11] [µM] | MIC [2, 12] [µM] | MIC [6, 13] [µM]
1 | CN[C@@H]1[C@H](O)[C@H](NC)[C@H]2O[C@@]3(O)C(=O)C[C@@H](C)O[C@H]3O[C@@H]2[C@H]1O [Spectinomycin, spectinomycin, reference compound] | 6.3 (≈ 2.09 µg/mL) | > 800 | 50 (≈ 16.6 µg/mL) | 50 (≈ 16.6 µg/mL) | 25 | 12.5 (≈ 4.15 µg/mL) | 6.3 (≈ 2.09 µg/mL) | – | – | –
2 | Cc1ccc(NC(=O)N[C@@H](Cc2cc(F)cc(F)c2)C(=O)N[C@H]2COC(=O)C3CC(C)(C)CN3C(=O)[C@H](C)NC(=O)C3CCCCN3C(=O)C3CCCN3C2=O)cc1 (stereo partly drawn) [Compound 49, (S)-3-(3,5-difluorophenyl)-2-(3-(p-tolyl)ureido)-N-((6S,8aS,14aS,20S,23aS)-2,2,6-trimethyl-5,8,14,19,23-pentaoxooctadecahydro-1H,5H,14H,19H-pyrido[2,1-i]dipyrrolo[2,1-c:2′,1′-l][1]oxa[4,7,10,13]tetraazacyclohexadecin-20-yl)propanamide] ({NH(4-Me-phenyl)-CO}-[Phe(3,5-F2)]S[ξP][ξPip]A[X9]; ester 2-C) | – | – | 12.5 (≈ 10.1 µg/mL) | 25 (≈ 20.2 µg/mL) | 100 | – | 6.3 (≈ 5.09 µg/mL) | 0.4 (≈ 0.323 µg/mL) | 12.5 (≈ 10.1 µg/mL) | 25 (≈ 20.2 µg/mL)
3 | Cc1ccc(NC(=O)N[C@@H](Cc2cc(F)cc(F)c2)C(=O)N[C@H]2COC(=O)C3C[C@H](C)CN3C(=O)[C@H](C)NC(=O)C3CCCCN3C(=O)C3CCCN3C2=O)cc1C (stereo partly drawn) [Compound 48, (S)-3-(3,5-difluorophenyl)-N-((2S,6S,8aS,14aS,20S,23aS)-2,6-dimethyl-5,8,14,19,23-pentaoxooctadecahydro-1H,5H,14H,19H-pyrido[2,1-i]dipyrrolo[2,1-c:2′,1′-l][1]oxa[4,7,10,13]tetraazacyclohexadecin-20-yl)-2-(3-(3,4-dimethylphenyl)ureido)propanamide] | – | – | 1.6 (≈ 1.29 µg/mL) | 1.6 (≈ 1.29 µg/mL) | 200 | – | 0.8 (≈ 0.646 µg/mL) | 0.2 (≈ 0.162 µg/mL) | 0.4 (≈ 0.323 µg/mL) | 3.1 (≈ 2.5 µg/mL)
4 | C[C@@H]1C[C@H]2C(=O)O[C@@H](C)[C@H](NC(=O)[C@H](Cc3cc(F)cc(F)c3)NC(=O)Nc3ccc4c(c3)OCO4)C(=O)N3CCC[C@H]3C(=O)N3CCCC[C@H]3C(=O)N[C@@H](C)C(=O)N2C1 [Compound 198, (S)-2-(3-(benzo[d][1,3]dioxol-5-yl)ureido)-3-(3,5-difluorophenyl)-N-((2R,6S,8aS,14aS,20S,21S,23aS)-2,6,21-trimethyl-5,8,14,19,23-pentaoxooctadecahydro-1H,5H,14H,19H-pyrido[2,1-i]dipyrrolo[2,1-c:2′,1′-l][1]oxa[4,7,10,13]tetraazacyclohexadecin-20-yl)propanamide] ({NH(1,3-benzodioxol-5-yl)-CO}-[Phe(3,5-F2)][aThr]P[Pip]A[Pro(4R-Me)]; ester 2-C) | < 0.02 | < 0.02 | 0.039 (≈ 0.0327 µg/mL) | 0.039 (≈ 0.0327 µg/mL) | >20 | 0.039 (≈ 0.0327 µg/mL) | < 0.02 | – | – | –
5 | C[C@@H]1C[C@H]2C(=O)O[C@@H](C)[C@H](NC(=O)[C@H](Cc3cc(F)cc(F)c3)NC(=O)Nc3ccc4c(c3)OCO4)C(=O)N3CCC[C@H]3C(=O)N(C)[C@@H]([C@@H](C)O)C(=O)N[C@@H](C)C(=O)N2C1 [Compound 197, (S)-2-(3-(benzo[d][1,3]dioxol-5-yl)ureido)-3-(3,5-difluorophenyl)-N-((2R,6S,9S,11aS,17S,18S,20aS)-9-((R)-1-hydroxyethyl)-2,6,10,18-tetramethyl-5,8,11,16,20-pentaoxohexadecahydro-1H,5H,16H-dipyrrolo[2,1-c:2′,1′-l][1]oxa[4,7,10,13]tetraazacyclohexadecin-17-yl)propanamide] ({NH(1,3-benzodioxol-5-yl)-CO}-[Phe(3,5-F2)][aThr]P[NMeT]A[Pro(4R-Me)]; ester 2-C) | < 0.02 | 0.039 (≈ 0.0328 µg/mL) | 0.039 (≈ 0.0328 µg/mL) | 0.078 (≈ 0.0657 µg/mL) | >20 | 0.039 (≈ 0.0328 µg/mL) | < 0.02 | – | – | –
